Values of other authors as cited in patent publication US12062414B1, “System and method for predicting susceptibility of genus Klebsiella to amikacin” (Peking Union Medical College Hospital, Chinese Academy of …, priority 2023, dated 2024).

Tested on: carbapenem-resistant Klebsiella pneumoniae
Details: isolated from 2014-2017; data from 252/403

## NCC[C@H](O)C(=O)N[C@@H]1C[C@H](N)[C@@H](O[C@H]2O[C@H](CN)[C@@H](O)[C@H](O)[C@H]2O)[C@H](O)[C@H]1O[C@H]1O[C@H](CO)[C@@H](O)[C@H](N)[C@H]1O [amikacin]
  resistance rate to amikacin: 62.5%
